Holding throughout (format): cell-based
Experiment [1] concerns RSV strain A2. In words: RSV HEp-2 EC50 (infectious cytopathic cell protection assay). Particulars: HEp-2 cells, RSV A2, 4 days, read-out: RSV HEp-2 EC50. The protocol: Antiviral activity against RSV is determined using an infectious cytopathic cell protection assay in HEp-2 cells. In this assay, compounds inhibiting viral infection and/or replication produce a cytoprotective effect against the virus-induced cell killing that can be quantified using a cell viability reagent. The techniques used here are novel adaptations of methods described in published literature (Chapman et al., Antimicrob Agents Chemother. 2007, 51(9):3346-53.)
HEp-2 cells are obtained from ATCC (Manassas, VI) and maintained in MEM media supplemented with 10% fetal bovine serum and penicillin/streptomycin. Cells are passaged twice a week and kept at subconfluent stage. Commercial stock of RSV strain A2 (Advanced Biotechnologies, Columbia, MD) is titered before compound testing to determine the appropriate dilution of the virus stock that generates desirable cytopathic effect in HEp-2 cells.
For antiviral tests, HEp-2 cells are grown in large cell culture flasks to near confluency but not fully so. The compounds to be tested are prediluted in DMSO in 384-well compound dilution plates, either in an 8 or 40 sample per plate standardized dose response format. 3-fold serial dilution increments of each test compound are prepared in the plates and test samples are transferred via acoustic transfer apparatus (Echo, Labcyte) at 100 nL per well into cell culture assay 384-well plates. Each compound dilution is transferred in single or quadruplicate samples into dry assay plates, which are stored until assay is ready to go. The positive and negative controls are laid out in opposite on ends of the plate in vertical blocks (1 column).
Subsequently, an infectious mixture is prepared using an appropriate dilution of virus stock previously determined by titration with cells at a density of 50,000/ml and 20 µL/well is added to test plates w/compounds via automation (uFlow, Biotek). Each plate includes negative and positive controls (16 replicates each) to create 0% and 100% virus inhibition standards, respectively. Following the infection with RSV, testing plates are incubated for 4 days in a 37° C. cell culture incubator. After the incubation, a cell viability reagent, Cell TiterGlo (Promega, Madison, WI) is added to the assay plates, which are incubated briefly, and a luminescent readout is measured (Envision, Perkin Elmer) in all the assay plates. The RSV-induced cytopathic effect, percentage inhibition, is determined from the levels of remaining cell viability. […] Various potent anti-RSV tool compounds are used as positive controls for antiviral activity.
Background: Protection from cytopathic effect is a common read-out in antiviral testing.

Experiment [2] concerns DENV2 replicon. In words: DENV-2 Huh-7 Rep EC50 (replicon luminescence). Particulars: Dengue virus, DENV2, Huh-7, 48 h, Huh-7 replicon cells, 48 hours; read-out: DENV-2 Huh-7 Rep EC50. How it is done:
In 384 well plates (Greiner, Cat #781091), compounds were acoustically transferred at 200 nl per well in a 8 compound (4 replicates) or 40 compound dose response format (3 replicates). For all plates tested, Balapiravir, GS-5734 and NITD008 were included as positive inhibition controls alongside 0% inhibition, DMSO-only negative control wells. Following compound addition, Huh-7 cells containing the DENV2 replicon construct were harvested following standard cell culture procedures and were adjusted to a concentration of 1.25E5 cells/mL in cell culture media composed of cDMEM without genticin. 40 μL of the cell stock was then added to each well for a final cell density of 5,000 cells/well. Cell and compound mixtures were incubated at 37° C./5% CO2 for 48 hours. Prior to harvesting cells, EnduRen Live Cell Substrate (Promega, Cat #E6481) was prepared by suspending 3.4 mg into 100 uL of DMSO to generate a 60 mM stock solution. The stock solution was then diluted 1:200 in pre-warmed cDMEM and 10 uL of this diluted solution was added to each well of the 384 well plates. Plates were then centrifuged at 500 rpm briefly and were placed on a plate shaker for 2 min. Following mixing, plates were incubated at […] for 1.5 hours prior to measuring luminescence on an Envision luminometer.
Background: In antiviral work, replicon cells carry a viral genome segment that copies itself.

Experiment [3] deals with HRV16. In words: HRV16 HELA EC50 (cytopathic effect in H1-HeLa cells). The protocol: H1-HeLa cells, cultured in complete DMEM medium containing 10% heat-inactivated FBS and 1% Penicillin/Streptomycin, were seeded in 96 well plates at 3000 cells/well one day prior to compound dosing and infection. The antiviral activity of each compound was measured in triplicate. Compounds were added directly to the cell cultures in serial 3-fold dilutions using the HP300 digital dispenser (Hewlett Packard, Palo Alto, CA) immediately prior to infection. The plates were transferred to BSL-2 containment and the appropriate dilution of virus stock, previously determined by titration and prepared in cell culture media, was added to test plates containing cells and serially diluted compounds. Each plate included 6 wells of infected untreated cells and 6 wells of uninfected cells that served as 0% and 100% virus inhibition control, respectively. Following the infection, test plates were incubated for 96 h in a tissue culture incubator set to 33° C./5% CO2. Following incubation, the H1-HeLa cells were removed from incubation and allowed to equilibrate to 25° C. Cell viability was determined by removing 100 μL of culture medium and adding 100 μL of Cell-Titer Glo viability reagent. The mixtures were incubated on a shaker for 10 minutes at 25° C., and the luminescence signal was quantified on an Envision luminescence plate reader.

For experiment [4], the system named is RSV A2. Nature of the experiment: RSV NHBE EC50 (RSV A2 antiviral assay in normal human bronchial epithelial cells). The settings on record: NHBE cells, RSV A2, 4 days, read-out: RSV NHBE EC50. How it is done:
Normal human bronchial epithelial (NHBE) cells were purchased from Lonza (Walkersville, MD, Cat #CC-2540) and cultured in Bronchial Epithelial Growth Media (BEGM) (Lonza, Walkersville, MD, Cat #CC-3170). The cells were passaged 1-2 times per week to maintain <80% confluency. The NHBE cells were discarded after 6 passages in culture.
To conduct the RSV A2 antiviral assay, NHBE cells were plated in 96-well plates at a density of 7,500 cells per well in BEGM and allowed to attach overnight at 37° C. Following attachment, 100 μL of cell culture media was removed and 3-fold serially diluted compound was added using a Hewlett-Packard D300 Digital Dispenser. The final concentration of DMSO was normalized to 0.05%. Following compound addition, the NHBE cells were infected by the addition of 100 μL of RSV A2 at a titer of 1×10^4.5 tissue culture infectious doses/mL in BEGM and then incubated at 37° C. for 4 days. […] The mixtures were incubated for 10 minutes at 25° C., and the luminescence signal was quantified on an Envision luminescence plate reader.

Setting [5] is: human respiratory syncytial virus, HEp-2, 96 h.
[6] abbreviates: 96 h, H1-HeLa cells, 33° C., read-out: HRV16 HELA EC50.
Setting [7] is: human respiratory syncytial virus, NHBE, 96 h.
Setting [8] is: H1-HeLa cells, 96 h, 33° C.; read-out: HRV16 HELA EC50.
[9] abbreviates: human respiratory syncytial virus, 96 h.

For ten compounds, EC50 results are on record in patent publication US20230295201A1 (Gilead Sciences, Inc., priority 2020, published 2023).

What is called EC50 is the concentration at which the effect is half-maximal.

Like-named read-outs stand apart in the source and are kept apart here. Where only a bound is given, the exact number is not on record here.

Take `C[C@H](NP(=O)(OC[C@@]1(C#N)O[C@@H](c2ccc3c(N)ncnn23)[C@H](O)[C@@H]1O)Oc1ccccc1)C(=O)OC[C@H]1CC[C@H](C(F)(F)F)CC1` (mixture of isomers) [Example 26, ((1r,4S)-4-(trifluoromethyl)cyclohexyl)methyl ((((2R,3S,4R,5S)-5-(4-aminopyrrolo[2,1-f][1,2,4]triazin-7-yl)-2-cyano-3,4-dihydroxytetrahydrofuran-2-yl)methoxy)(phenoxy)phosphoryl)alaninate]: the EC50 in experiment [1] (setting [5]) turned out to be 0.334 µM; in experiment [2], 44.3 µM; in experiment [3] (setting [6]) it was 0.669 µM; in experiment [4] (setting [7]), 0.025 µM.
As for `C[C@H](NP(=O)(OC[C@@]1(C#N)O[C@@H](c2ccc3c(N)ncnn23)[C@H](O)[C@@H]1O)Oc1ccccc1)C(=O)O[C@@H]1CCN(C)C1` (mixture of isomers) [Example 61, (R)-1-methylpyrrolidin-3-yl ((((2R,3S,4R,5S)-5-(4-aminopyrrolo[2,1-f][1,2,4]triazin-7-yl)-2-cyano-3,4-dihydroxytetrahydrofuran-2-yl)methoxy)(phenoxy)phosphoryl)-L-alaninate], the EC50 in experiment [1] (setting [5]) was 2.29 µM; in experiment [3] (setting [6]), 23.2 µM; in experiment [4] (setting [7]), no less than 5 µM.
With `CCOC(=O)[C@H](CCCCNC(C)=O)NP(=O)(OC[C@@]1(C#N)O[C@@H](c2ccc3c(N)ncnn23)[C@H](O)[C@@H]1O)Oc1ccccc1` (mixture of isomers) [Example 85, (2S)-ethyl 6-acetamido-2-(((((2R,3S,4R,5S)-5-(4-aminopyrrolo[2,1-f][1,2,4]triazin-7-yl)-2-cyano-3,4-dihydroxytetrahydrofuran-2-yl)methoxy)(phenoxy)phosphoryl)amino)hexanoate], the EC50 was greater than 46.7 µM in experiment [1] (setting [5]), greater than 50 µM in experiment [2], greater than 50 µM in experiment [3] (setting [6]) and greater than 5 µM in experiment [4] (setting [7]).
Take `CCC(CC)COC(=O)[C@H](CCCCN)NP(=O)(OC[C@@]1(C#N)O[C@@H](c2ccc3c(N)ncnn23)[C@H](O)[C@@H]1O)Oc1ccccc1` (mixture of isomers) [Example 91, (2S)-2-ethylbutyl 6-amino-2-(((((2R,3S,4R,5S)-5-(4-aminopyrrolo[2,1-f][1,2,4]triazin-7-yl)-2-cyano-3,4-dihydroxytetrahydrofuran-2-yl)methoxy)(phenoxy)phosphoryl)amino)hexanoate]: the EC50 is 12.1 µM in experiment [1] (setting [5]), greater than 50 µM in experiment [2], greater than 50 µM in experiment [3] (setting [6]) and greater than 5 µM in experiment [4] (setting [7]).
As for `C[C@H](N[P@@](=O)(OC[C@@]1(C#N)O[C@@H](c2ccc3c(N)ncnn23)[C@H](O)[C@@H]1O)Oc1ccccc1)C(=O)OC1CCCCC1` (single isomer, unassigned) [Example 5], the concentration for a half-maximal effect (EC50) in experiment [1] (setting [5]) was 2.73 µM; in experiment [3] (setting [6]), 0.654 µM; in experiment [4] (setting [7]) it was 0.63 µM.
On to `COC(=O)[C@H](C)NP(=O)(OC[C@@]1(C#N)O[C@@H](c2ccc3c(N)ncnn23)[C@H](O)[C@@H]1O)Oc1ccc(C[C@H](N)C(=O)OC)cc1` (single isomer, unassigned) [Example 62], for which the half-maximal effective concentration (EC50) in experiment [1] is 4.53 µM; in experiment [3] (setting [8]) it was 8.57 µM; in experiment [4], greater than 5 µM.
Take `C[C@@H](NP(=O)(OC[C@@]1(C#N)O[C@@H](c2ccc3c(N)ncnn23)[C@H](O)[C@@H]1O)Oc1ccccc1)C(=O)O[C@H]1CC[C@H](C(F)(F)F)CC1` (single isomer, unassigned) [Example 196]: the EC50 amounted to 4.13 µM in experiment [1], 7.54 µM in experiment [3] (setting [8]) and 1.32 µM in experiment [4].
For `CSCCOP(=O)(N[C@@H](C)C(=O)OC(C)C)OC[C@@]1(C#N)O[C@@H](c2ccc3c(N)ncnn23)[C@H](O)[C@@H]1O` (stereo partly drawn) [Example 40, isopropyl ((((2R,3S,4R,5S)-5-(4-aminopyrrolo[2,1-f][1,2,4]triazin-7-yl)-2-cyano-3,4-dihydroxytetrahydrofuran-2-yl)methoxy)(2-(methylthio)ethoxy)phosphoryl)-L-alaninate], the EC50 in experiment [1] (setting [9]) was 21.5 µM; in experiment [3] (setting [8]) it was greater than 50 µM; in experiment [4] (setting [9]) it was no less than 5 µM.
With `C[C@H](NP(=O)(OC[C@@]1(C#N)O[C@@H](c2ccc3c(N)ncnn23)[C@H](O)[C@@H]1O)Oc1ccccc1)C(=O)OC1COC1` (stereo partly drawn) [Example 44, oxetan-3-yl ((((2R,3S,4R,5S)-5-(4-aminopyrrolo[2,1-f][1,2,4]triazin-7-yl)-2-cyano-3,4-dihydroxytetrahydrofuran-2-yl)methoxy)(phenoxy)phosphoryl)-L-alaninate], the EC50 in experiment [1] (setting [5]) stood at 0.998 µM; in experiment [3] (setting [6]) it was 4.26 µM; in experiment [4] (setting [7]), 1.8 µM.
For `CCCCCCCCCCCCCCCC(=O)OCC(COP(=O)(O)OC[C@@]1(C#N)O[C@@H](c2ccc3c(N)ncnn23)[C@H](O)[C@@H]1O)OC(=O)CCCCCCCCCCCCCCC` (stereo partly drawn) [Example 152, 3-(((((2R,3S,4R,5S)-5-(4-aminopyrrolo[2,1-f][1,2,4]triazin-7-yl)-2-cyano-3,4-dihydroxytetrahydrofuran-2-yl)methoxy)(hydroxy)phosphoryl)oxy)propane-1,2-diyl dipalmitate], the EC50 in experiment [1] (setting [9]) is greater than 5 µM; in experiment [3] (setting [8]), greater than 5 µM; in experiment [4] (setting [9]) it was 1.78 µM.
